Source: PubChem BioAssay (NCI)
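Cultured in 96-well plates, cells were exposed to test compound for 48 hours across five concentrations. GI50 = concentration required for 50% inhibition of growth. TGI marks complete inhibition of growth.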

Assays:
Assay in all cases: DTP human tumour cell line panel, 48 h; in the data active means GI50 below about 0.43 µM; inactive means the rest
SW-620 colon = system: SW-620 colon
M19-MEL melanoma = system: M19-MEL melanoma
SNB-19 CNS = system: SNB-19 CNS
SF-295 CNS = system: SF-295 CNS
HL-60(TB) leukemia = system: HL-60(TB) leukemia
CAKI-1 renal = system: CAKI-1 renal
UACC-62 melanoma = system: UACC-62 melanoma
OVCAR-8 ovarian = system: OVCAR-8 ovarian
RXF-631 renal = system: RXF-631 renal
EKVX NSCLC = system: EKVX NSCLC
HOP-18 NSCLC = system: HOP-18 NSCLC
CCRF-CEM leukemia = system: CCRF-CEM leukemia
SNB-75 CNS = system: SNB-75 CNS
RXF 393 renal = system: RXF 393 renal
SK-OV-3 ovarian = system: SK-OV-3 ovarian
ACHN renal = system: ACHN renal
NCI-H460 lung = system: NCI-H460 lung
XF 498 CNS = system: XF 498 CNS
UACC-257 melanoma = system: UACC-257 melanoma
NCI-H23 lung = system: NCI-H23 lung
HCT-15 colon = system: HCT-15 colon
DLD-1 colon = system: DLD-1 colon
UO-31 renal = system: UO-31 renal
TK-10 renal = system: TK-10 renal
OVCAR-3 ovarian = system: OVCAR-3 ovarian
A498 renal = system: A498 renal
KM20L2 colon = system: KM20L2 colon
SF-268 CNS = system: SF-268 CNS
NCI-H522 lung = system: NCI-H522 lung
MOLT-4 leukemia = system: MOLT-4 leukemia
K-562 leukemia = system: K-562 leukemia
U251 CNS = system: U251 CNS
SF-539 CNS = system: SF-539 CNS
SK-MEL-2 melanoma = system: SK-MEL-2 melanoma
OVCAR-5 ovarian = system: OVCAR-5 ovarian
IGROV1 ovarian = system: IGROV1 ovarian
SNB-78 CNS = system: SNB-78 CNS
KM12 colon = system: KM12 colon
M14 melanoma = system: M14 melanoma
DMS 114 small cell lung = system: DMS 114 small cell lung
SK-MEL-5 melanoma = system: SK-MEL-5 melanoma
NCI-H226 lung = system: NCI-H226 lung
HCC-2998 colon = system: HCC-2998 colon
HCT-116 colon = system: HCT-116 colon
LXFL 529 NSCLC = system: LXFL 529 NSCLC
HT29 colon = system: HT29 colon
RPMI-8226 leukemia = system: RPMI-8226 leukemia
786-0 renal = system: 786-0 renal
HOP-62 NSCLC = system: HOP-62 NSCLC
SK-MEL-28 melanoma = system: SK-MEL-28 melanoma
A549 NSCLC = system: A549 NSCLC
LOX IMVI melanoma = system: LOX IMVI melanoma
HOP-92 NSCLC = system: HOP-92 NSCLC
SN12C renal = system: SN12C renal
DMS 273 small cell lung = system: DMS 273 small cell lung
OVCAR-4 ovarian = system: OVCAR-4 ovarian
MALME-3M melanoma = system: MALME-3M melanoma
COLO 205 colon = system: COLO 205 colon

CC(C)N(C(C)C)[PH+]1O[PH+](N(C(C)C)C(C)C)O[PH+](N(C(C)C)C(C)C)O[PH+](N(C(C)C)C(C)C)O1.[C-]#[O+].[C-]#[O+].[C-]#[O+].[C-]#[O+].[C-]#[O+].[C-]#[O+].[C-]#[O+].[C-]#[O+].[Mo].[Mo] (stereo unspecified)
inactive: GI50 (SW-620 colon) > 100 µM | GI50 (M19-MEL melanoma) > 100 µM | GI50 (SNB-19 CNS) > 100 µM | GI50 (SF-295 CNS) > 100 µM | GI50 (HL-60(TB) leukemia) > 100 µM | GI50 (CAKI-1 renal) > 100 µM | GI50 (UACC-62 melanoma) > 100 µM | GI50 (OVCAR-8 ovarian) > 100 µM | GI50 (RXF-631 renal) > 100 µM | GI50 (EKVX NSCLC) > 100 µM | GI50 (HOP-18 NSCLC) > 100 µM | GI50 (CCRF-CEM leukemia) > 100 µM | GI50 (SNB-75 CNS) > 100 µM | GI50 (RXF 393 renal) > 100 µM | GI50 (SK-OV-3 ovarian) > 100 µM | GI50 (ACHN renal) > 100 µM | GI50 (NCI-H460 lung) > 100 µM | GI50 (XF 498 CNS) > 100 µM | GI50 (UACC-257 melanoma) > 100 µM | GI50 (NCI-H23 lung) > 100 µM | GI50 (HCT-15 colon) > 100 µM | GI50 (DLD-1 colon) > 100 µM | GI50 (UO-31 renal) > 100 µM | GI50 (TK-10 renal) > 100 µM | GI50 (OVCAR-3 ovarian) > 100 µM | GI50 (A498 renal) > 100 µM | GI50 (KM20L2 colon) > 100 µM | GI50 (SF-268 CNS) > 100 µM | GI50 (NCI-H522 lung) > 100 µM | GI50 (MOLT-4 leukemia) > 100 µM | GI50 (K-562 leukemia) > 100 µM | GI50 (U251 CNS) > 100 µM | GI50 (SF-539 CNS) > 100 µM | GI50 (SK-MEL-2 melanoma) > 100 µM | GI50 (OVCAR-5 ovarian) > 100 µM | GI50 (IGROV1 ovarian) > 100 µM | GI50 (SNB-78 CNS) > 100 µM | GI50 (KM12 colon) > 100 µM | GI50 (M14 melanoma) > 100 µM | GI50 (DMS 114 small cell lung) > 100 µM | GI50 (SK-MEL-5 melanoma) > 100 µM | GI50 (NCI-H226 lung) > 100 µM | GI50 (HCC-2998 colon) > 100 µM | GI50 (HCT-116 colon) > 100 µM | GI50 (LXFL 529 NSCLC) > 100 µM | GI50 (HT29 colon) > 100 µM | GI50 (RPMI-8226 leukemia) > 100 µM | GI50 (786-0 renal) > 100 µM | GI50 (HOP-62 NSCLC) > 100 µM | GI50 (SK-MEL-28 melanoma) > 100 µM | GI50 (A549 NSCLC) > 100 µM | GI50 (LOX IMVI melanoma) > 100 µM | GI50 (HOP-92 NSCLC) > 100 µM | GI50 (SN12C renal) > 100 µM | GI50 (DMS 273 small cell lung) > 100 µM | GI50 (OVCAR-4 ovarian) > 100 µM | GI50 (MALME-3M melanoma) > 100 µM | GI50 (COLO 205 colon) > 100 µM
> 100 µM: TGI (SW-620 colon) | TGI (M19-MEL melanoma) | TGI (SNB-19 CNS) | TGI (SF-295 CNS) | TGI (HL-60(TB) leukemia) | TGI (CAKI-1 renal) | TGI (UACC-62 melanoma) | TGI (OVCAR-8 ovarian) | TGI (RXF-631 renal) | TGI (EKVX NSCLC) | TGI (HOP-18 NSCLC) | TGI (CCRF-CEM leukemia) | TGI (SNB-75 CNS) | TGI (RXF 393 renal) | TGI (SK-OV-3 ovarian) | TGI (ACHN renal) | TGI (NCI-H460 lung) | TGI (XF 498 CNS) | TGI (UACC-257 melanoma) | TGI (NCI-H23 lung) | TGI (HCT-15 colon) | TGI (DLD-1 colon) | TGI (UO-31 renal) | TGI (TK-10 renal) | TGI (OVCAR-3 ovarian) | TGI (A498 renal) | TGI (KM20L2 colon) | TGI (SF-268 CNS) | TGI (NCI-H522 lung) | TGI (MOLT-4 leukemia) | TGI (K-562 leukemia) | TGI (U251 CNS) | TGI (SF-539 CNS) | TGI (SK-MEL-2 melanoma) | TGI (OVCAR-5 ovarian) | TGI (IGROV1 ovarian) | TGI (SNB-78 CNS) | TGI (KM12 colon) | TGI (M14 melanoma) | TGI (DMS 114 small cell lung) | TGI (SK-MEL-5 melanoma) | TGI (NCI-H226 lung) | TGI (HCC-2998 colon) | TGI (HCT-116 colon) | TGI (LXFL 529 NSCLC) | TGI (HT29 colon) | TGI (RPMI-8226 leukemia) | TGI (786-0 renal) | TGI (HOP-62 NSCLC) | TGI (SK-MEL-28 melanoma) | TGI (A549 NSCLC) | TGI (LOX IMVI melanoma) | TGI (HOP-92 NSCLC) | TGI (SN12C renal) | TGI (DMS 273 small cell lung) | TGI (OVCAR-4 ovarian) | TGI (MALME-3M melanoma) | TGI (COLO 205 colon)
